The values that follow come from PubChem BioAssay AID2252 (Southern Research Specialized Biocontainment Screening …, 2010).

“And” between values parts separate entries of the source, which are not always exact repeats. Identical values can stand only once. Some results are limits rather than exact numbers.

In this test the test system is THP-1 viability, CellTiter-Glo luminescence, 72 h. As to the kind of experiment: PubChem AID 2252.
As to `COC(=O)C1C(O)C(C)C(O)C(C)(O)/C=C\C=C(/C)C(=O)Nc2c(C)c(OC(C)=O)c3c(c2O)C(=O)C(C)=C2OCOC(=C23)/C(C)=C/C(C)(O)C(O)C(C)C1O` (configuration not stated), the EC50 (in general, the concentration giving half of the maximal effect) was less than 0.1 µM.

With `CC(C)(C)c1nc(SCC(=O)NCc2ccco2)c2ccccc2n1`, the EC50 is 30 µM.

Consider `C=C1c2c(Cl)ccc(O)c2C(O)=C2C(=O)[C@]3(O)C(O)=C(C(N)=O)C(=O)[C@@H](N(C)C)[C@@H]3[C@@H](O)C12` (some centres not stated), for which the EC50 is 13.4 µM.

`N#Cc1ccc(C2=NC(C(F)(F)F)(C(F)(F)F)c3c(n(Cc4ccco4)c(=O)[nH]c3=O)N2)cc1`: the EC50 is 31.2 µM.

`Oc1ccc(N=Nc2ccc(Br)cc2)c(O)c1`: the EC50 is 17.8 µM.

For `S=C(Nc1cc(Cl)cc(Cl)c1)NC1CCN(Cc2ccccc2)CC1`, the EC50 is 14.6 µM.

With `C/C(Cn1nnc([N+](=O)[O-])n1)=N\NC(=O)c1ccccc1`, the EC50 is 40 µM.

Take `CN1CCN(C(c2cccc(Cl)c2)c2ccccc2Cl)CC1` (configuration not stated): the EC50 was 35 µM.

As for `O=C(C[n+]1cc(-c2ccccc2)n2c1CCC2)Nc1nc(-c2ccc(F)cc2)cs1`, the EC50 was 32.4 µM.

As to `O=C(CC(=O)c1c(F)cccc1Cl)c1ccccc1O`, the EC50 was 27.4 µM.

As for `C#CCOCCOCCOCCNc1nc(N2CCN(C(=O)CCCCCCCCCCNC(=O)[C@H](CO)n3cc(CCCSC)nn3)CC2)nc(N2CCN(C(=O)CCCCCCCCCCNC(=O)[C@H](CCCN=C(N)N)n3cc(C[C@@H](C)CC)nn3)CC2)n1`, the EC50 is 9.01 µM.

Consider `Cc1ccc(-n2[nH]c(C)c(C=NCc3ccncc3)c2=O)cc1`, for which the EC50 is 31.6 µM.

In the case of `OCCN1CCN(C2CCC(c3ccc(F)cc3)c3ccc(F)cc32)CC1` (configuration not stated), the half-maximal effective concentration (EC50) was 9.55 µM.

Take `O=C(CCc1ccccc1)NNC(=S)NC(=O)c1ccccc1`: the EC50 is 10.9 µM.

With `COc1ccc(C(=O)CSc2nnc(-c3cnccn3)n2Cc2ccco2)cc1`, the EC50 was less than 0.1 µM.

With `c1ccc(Nc2nc(NCC3CCCO3)c3ccccc3n2)cc1` (configuration not stated), the EC50 was 3.83 µM.

`CC1CCN(CCOCCOc2ccc(Br)cc2Cl)CC1`: the EC50 is 32.9 µM.

Turning to `CCCCCCCCCCOC(=O)Cn1c(COc2ccccc2OC)[n+](C)c2ccccc21`, the EC50 was 1.64 µM.

Regarding `O=C(COc1ccc(Br)cc1CNCCc1ccccc1)NCc1ccccc1`, the EC50 was 10.4 µM.

Regarding `O=C(NCc1ccco1)C1CCN(C(=O)c2cc3sccc3n2Cc2ccc(Cl)cc2)CC1`, the EC50 was 27.8 µM.

On to `CCCCCc1ccc(OCCCC[n+]2cccc(C)c2)c(CCCCC)c1`, for which the EC50 is 1.05 µM.

Consider `Fc1ccc(/C=N/Nc2nc3ccccc3[nH]2)cc1F`, for which the half-maximal effective concentration (EC50) is 42.8 µM.

For `O=[N+]([O-])c1cc(/C=N/Nc2nc3ccccc3[nH]2)c(O)cc1O`, the EC50 is 1.7 µM.

Consider `NC1=C(Br)C(=O)c2ccccc2C1=O`, for which the EC50 was 9 µM.

As to `Clc1ccc(OCCCNCc2ccccc2)c2ccccc12`, the EC50 is 23.4 µM.

For `O=S1(=O)CC=C(CSc2nc3ccccc3[nH]2)C1`, the EC50 is less than 0.1 µM.

`COc1ccc(C(=O)NC(=S)NNC(=O)c2cccnc2)cc1`: the EC50 was 21.4 µM.

With `NC(N)=Nc1nc(-c2ccccc2)c2cc(Cl)ccc2n1`, the concentration giving a half-maximal response (EC50) was 3.77 µM.

Consider `CCCCCCCSc1cc(OC)c(CCN(C)C)cc1OC`, for which the EC50 is 9.51 µM.

As for `CCCCC(=O)NNC(=S)NC(=O)CCC`, the EC50 is 46 µM.

With `Cc1ccc(-c2csc(NC(=O)C[n+]3cc(-c4ccc(C)cc4)n4c3CCC4)n2)cc1`, the EC50 was 8.33 µM.

Take `Cn1c(SCC(=O)N/N=C/c2ccc([N+](=O)[O-])s2)nnc1-c1ccc(Cl)cc1`: the EC50 is 7.71 µM.

Consider `Cc1nn(Cc2ccccc2Cl)c2sc(C(=O)Nc3ccccc3N3CCOCC3)cc12`, for which the EC50 was 20.4 µM.

As to `Cc1ccc(Nc2c3c(nc4ccccc24)CCC3)cc1`, the EC50 was 9.1 µM.

For the compound `CN1CCN(c2nc(Nc3ccc(F)cc3)nc(Nc3ccc(F)cc3)n2)CC1`, the EC50 is 12.1 µM.

As for `CN(C)c1ccc(O)c2c1CC1CC3C(N(C)C)C(=O)C(C(N)=O)=C(O)[C@@]3(O)C(=O)C1=C2O` (some centres not stated), the EC50 is 33.7 µM.

In the case of `O=c1c(O)cccc2cc(O)c(O)c(O)c12`, the EC50 is 24.2 µM.

Take `Clc1ccc2[nH]c3c(c2c1)CCc1cn[nH]c1-3`: the EC50 is 31.3 µM.

In the case of `NCC/C=C1/c2ccccc2CSc2ccccc21`, the EC50 was 25.9 µM.

For the compound `CCCCCCCCC1=NCCc2c1[nH]c1ccccc21`, the concentration giving a half-maximal response (EC50) was 15 µM.

Regarding `COC(=O)c1ccc(CSc2ccc3nnc(-c4ccc(OC)c(OC)c4)n3n2)o1`, the EC50 was 10.3 µM.

As for `CCc1ccc(N2CC(C(=O)N/N=C/c3cc([N+](=O)[O-])ccc3O)CC2=O)cc1` (configuration not stated), the EC50 was 11.3 µM.

Consider `OC(CNCCc1ccccc1)COc1ccc(OCC(O)CNCCc2ccccc2)cc1` (configuration not stated), for which the EC50 is 7.35 µM.

As for `COc1ccccc1C(C[N+](=O)[O-])c1c(N)n(C)c(=O)n(C)c1=O` (configuration not stated), the EC50 is 8.91 µM.

For the compound `O=C(Nc1cccc(Cl)c1)Nc1nccs1`, the EC50 is 33.8 µM.

`CCOC(=O)c1nc(C)n(-c2cc(Cl)ccc2Cl)n1`: the EC50 is 14.9 µM.

As for `CC1CC(C)CN(C(=O)c2ccc(NC(=O)c3ccc(=O)[nH]c3)cc2)C1` (configuration not stated), the EC50 was 33 µM.

In the case of `CN(C)CCOCCOc1ccc(Cl)c2ccccc12`, the EC50 was 48.3 µM.

As for `NC1=NC[C@H](Cc2ccc(O)cc2)N1CCCCC1CCCCC1`, the EC50 was 1.73 µM.

Turning to `Fc1cccc(NC(=S)NCc2ccc(Cl)cc2)c1`, the EC50 was 46.7 µM.

Regarding `CC(C)[C@@H](C(=O)NC1CCCC1)N1C(=O)N2CCc3c([nH]c4ccccc34)[C@@]2(C)C1=O`, the EC50 was 45.5 µM.

In the case of `COc1ccc(Nc2cc(C)nc(NCc3ccccc3)n2)cc1`, the EC50 was 4.79 µM.

In the case of `CC1Cc2ccccc2N1S(=O)(=O)c1cccc(C(=O)N2CC(=O)Nc3ccccc32)c1` (configuration not stated), the EC50 was 46.1 µM.

As to `CCN(CC)c1ccc(CNc2nc3ccccc3n2CCN2CCCCC2)cc1`, the EC50 was 16.5 µM.

For `O=C(Cn1nc(CNc2ccc(Cl)cc2)[n+]2c1CCCCC2)c1ccc(Br)cc1`, the EC50 was 11.2 µM.

Regarding `CCCNC1=C(C)C(=O)C2=C(C1=O)C(COC(N)=O)[C@]1(OC)C3NC3CN21` (some centres not stated), the EC50 is 8.84 µM.

Consider `O=C(Nc1ccc(Nc2ccncc2)cc1)c1ccc([N+](=O)[O-])cc1`, for which the EC50 is 11.9 µM.

`Oc1ccc(COCc2ccccc2)c2cccnc12`: the EC50 was 1.24 µM.

As for `O=C(Nc1nc(-c2ccccn2)cs1)c1ccc(Br)s1`, the EC50 is 1.19 µM.

As for `CCCCCCCCCCOC(=O)Cn1c(COc2ccc(OC)cc2)[n+](C)c2ccccc21`, the EC50 is 4.04 µM and 2.21 µM.

As to `Cc1cccc(/C(N)=N/OC(=O)N2CCOCC2)c1`, the EC50 is 8.03 µM.

For `CCN(CC)CCNc1nc(-c2ccc(OC)cc2)c(-c2ccc(OC)cc2)s1`, the EC50 was 22.3 µM.

On to `CNCCCC1Sc2ccccc2Oc2ccccc21` (configuration not stated), for which the EC50 is 23.6 µM.

For the compound `C#CCOCCOCCOCCNc1nc(N2CCN(C(=O)CCCCCCCCCCNC(=O)[C@H](CCCCN)n3cc(C)nn3)CC2)nc(N2CCN(C(=O)CCCCCCCCCCNC(=O)[C@@H]([C@H](C)CC)n3cc(CCCCCN)nn3)CC2)n1`, the EC50 was 12.7 µM.

Regarding `CCc1ccc2c(c1)CCCN2C(=O)c1ccccc1C(=O)O`, the EC50 was 38.3 µM.

For `O=C(NNc1nc2ccc(F)cc2s1)c1cccc(F)c1`, the EC50 was 8.07 µM.

In the case of `CN1CCN(C(c2ccc(Br)cc2)c2cc(Cl)c3cccnc3c2O)CC1` (configuration not stated), the EC50 is 2 µM.
